Experimental data: patent US20240101573A1, “MACROCYCLIC K-RAS G12C INHIBITOR, PREPARATION METHOD THEREFOR AND USE THEREOF” (Abbisko Therapeutics Co., Ltd., priority 2020, published 2024)

Legend:
[1] = system: H358; assay: Anti-proliferation 2D CTG test (H358); type: cell-based; details: H358 cells, 1500 cells/well, 5 days incubation with compound, CTG readout
Summary of the method: (§1)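 H358 (1500 cells/well) and MIA PaCa-2 (500 cells/well) seeded overnight, then treated 5 days at 37 °C with 10-point 1:3 dilutions, top final […], 0.5% DMSO. Viability by CellTiter-Glo luminescence; IC50 from four-parameter fit normalized to plate controls.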

[2] = system: MIA PaCa-2; assay: Anti-proliferation 2D CTG test (MIA PaCa-2); type: cell-based; details: MIAPACA-2 cells, 500 cells/well, 5 days incubation with compound, CTG readout
Summary of the method: as §1

[3] = Homo sapiens, MIA PaCa-2, 120 h

Question: With `C=CC(=O)N1CCN(c2nc(=O)n3c4nc(c(F)cc24)-c2c(F)cccc2OCC(OCC)C(O)c2ccnc(C(C)C)c2-3)[C@@H](C)C1` (stereo partly drawn) [Example 46, (S)-2^4-((S)-4-acryloyl-2-methylpiperazin-1-yl)-6-ethoxy-2^6,3^6-difluoro-7-hydroxy-1^2-isopropyl-2^1,2^2-dihydro-4-oxa-2(1,7)-pyrido[2,3-d]pyrimidina-1(3,4)-pyridina-3(1,2)-benzocycloheptane-2^2-one] as the compound, how does the IC50 [1] read?
Answer: 261 nM

Question: And the IC50 [2]?
Answer: 148 nM

Question: What does the source list for `C=CC(=O)N1CCN(c2nc(=O)n3c4nc(c(F)cc24)-c2c(F)cccc2OCC(O)C(OCC2CC2)c2ccnc(C(C)C)c2-3)[C@@H](C)C1` (stereo partly drawn) [Example 47, (R)-2^4-((S)-4-acryloyl-2-methylpiperazin-1-yl)-7-(cyclopropylmethoxy)-2^6,3^6-difluoro-6-hydroxy-1^2-isopropyl-2^1,2^2-dihydro-4-oxa-2(1,7)-pyrido[2,3-d]pyrimidina-1(3,4)-pyridina-3(1,2)-benzocycloheptane-2^2-one]?
Answer: IC50 ([1]; Homo sapiens, NCI-H358, 120 h): 9 nM; IC50 [2, 3]: 5 nM

Question: `C=CC(=O)N1CCN(c2nc(=O)n3c4nc(c(F)cc24)-c2c(F)cccc2OCC(OCC2CC2)C(O)c2ccnc(C(C)C)c2-3)[C@@H](C)C1` (stereo partly drawn) [Example 49, (R)-2^4-((S)-4-acryloyl-2-methylpiperazin-1-yl)-6-(cyclopropylmethoxy)-2^6,3^6-difluoro-7-hydroxy-1^2-isopropyl-2^1,2^2-dihydro-4-oxa-2(1,7)-pyrido[2,3-d]pyrimidina-1(3,4)-pyridina-3(1,2)-benzocycloheptane-2^2-one] was tested. Which IC50 [1] did it give?
Answer: 7 nM

Question: What about the IC50 [2] of the same compound?
Answer: 6 nM

Question: Which IC50 [1] does the source give for `C=CC(=O)N1CCN(c2nc(=O)n3c4nc(c(F)cc24)-c2c(F)cccc2OCC(O)C(OCC(F)F)c2ccnc(C(C)C)c2-3)[C@@H](C)C1` (stereo partly drawn) [Example 51, (R)-2^4-((S)-4-acryloyl-2-methylpiperazin-1-yl)-7-(2,2-difluoroethoxy)-2^6,3^6-difluoro-6-hydroxy-1^2-isopropyl-2^1,2^2-dihydro-4-oxa-2(1,7)-pyrido[2,3-d]pyrimidina-1(3,4)-pyridina-3(1,2)-benzocycloheptane-2^2-one] here?
Answer: 10 nM

Question: And the IC50 [2]?
Answer: 7 nM

Question: With `C=CC(=O)N1CCN(c2nc(=O)n3c4nc(c(F)cc24)-c2c(F)cccc2OCC(OCC(F)F)C(O)c2ccnc(C(C)C)c2-3)[C@@H](C)C1` (stereo partly drawn) [Example 53, (R)-2^4-((S)-4-acryloyl-2-methylpiperazin-1-yl)-6-(2,2-difluoroethoxy)-2^6,3^6-difluoro-7-hydroxy-1^2-isopropyl-2^1,2^2-dihydro-4-oxa-2(1,7)-pyrido[2,3-d]pyrimidina-1(3,4)-pyridina-3(1,2)-benzocycloheptane-2^2-one] as the compound, how does the IC50 [1] read?
Answer: 17 nM

Question: What about the IC50 [2] of the same compound?
Answer: 16 nM

Question: For `C=CC(=O)N1CCN(c2nc(=O)n3c4nc(c(F)cc24)-c2c(F)cccc2OCC(OCC(F)F)C(O)c2ccnc(C(C)C)c2-3)[C@@H](C)C1` (stereo partly drawn) [Example 54, (S)-2^4-((S)-4-acryloyl-2-methylpiperazin-1-yl)-6-(2,2-difluoroethoxy)-2^6,3^6-difluoro-7-hydroxy-1^2-isopropyl-2^1,2^2-dihydro-4-oxa-2(1,7)-pyrido[2,3-d]pyrimidina-1(3,4)-pyridina-3(1,2)-benzocycloheptane-2^2-one], which IC50 [1] is on record?
Answer: 830 nM

Question: What about the IC50 [2] of the same compound?
Answer: 708 nM

Question: What does the source list for `C=CC(=O)N1CCN(c2nc(=O)n3c4nc(c(F)cc24)-c2c(F)cccc2OCC(OC(C)C)C(O)c2ccnc(C(C)C)c2-3)[C@@H](C)C1` (stereo partly drawn) [Example 55, (R)-2^4-((S)-4-acryloyl-2-methylpiperazin-1-yl)-6-isopropoxy-2^6,3^6-difluoro-7-hydroxy-1^2-isopropyl-2^1,2^2-dihydro-4-oxa-2(1,7)-pyrido[2,3-d]pyrimidina-1(3,4)-pyridina-3(1,2)-benzocycloheptane-2^2-one]?
Answer: IC50 [1]: 8 nM; IC50 [2]: 7 nM

Question: `C=CC(=O)N1CCN(c2nc(=O)n3c4nc(c(F)cc24)-c2c(F)cccc2OCC(OC(C)C)C(O)c2ccnc(C(C)C)c2-3)[C@@H](C)C1` (stereo partly drawn) [Example 56, (S)-2^4-((S)-4-acryloyl-2-methylpiperazin-1-yl)-6-isopropoxy-2^6,3^6-difluoro-7-hydroxy-1^2-isopropyl-2^1,2^2-dihydro-4-oxa-2(1,7)-pyrido[2,3-d]pyrimidina-1(3,4)-pyridina-3(1,2)-benzocycloheptane-2^2-one] was tested. Which IC50 [1] did it give?
Answer: 221 nM

Question: And the IC50 [2]?
Answer: 218 nM

Question: With `C=CC(=O)N1C[C@H](C)N(c2nc(=O)n3c4nc(c(F)cc24)-c2c(F)cccc2OCC(O)C(OCC)c2ccnc(C(C)C)c2-3)C[C@H]1C` (stereo partly drawn) [Example 57, (R)-2^4-((2S,5R)-4-acryloyl-2,5-dimethylpiperazin-1-yl)-7-ethoxy-2^6,3^6-difluoro-6-hydroxy-1^2-isopropyl-2^1,2^2-dihydro-4-oxa-2(1,7)-pyrido[2,3-d]pyrimidina-1(3,4)-pyridina-3(1,2)-benzocycloheptane-2^2-one] as the compound, how does the IC50 [1] read?
Answer: 35 nM

Question: And the IC50 [2]?
Answer: 18 nM

Question: `C=CC(=O)N1C[C@H](C)N(c2nc(=O)n3c4nc(c(F)cc24)-c2c(F)cccc2OCC(O)C(OCC)c2ccnc(C(C)C)c2-3)C[C@H]1C` (stereo partly drawn) [Example 58, (S)-2^4-((2S,5R)-4-acryloyl-2,5-dimethylpiperazin-1-yl)-7-ethoxy-2^6,3^6-difluoro-6-hydroxy-1^2-isopropyl-2^1,2^2-dihydro-4-oxa-2(1,7)-pyrido[2,3-d]pyrimidina-1(3,4)-pyridina-3(1,2)-benzocycloheptane-2^2-one] was tested. Which IC50 [1] did it give?
Answer: 461 nM

Question: And the IC50 [2]?
Answer: 314 nM

Question: `C=CC(=O)N1CCN(c2nc(=O)n3c4nc(c(F)cc24)-c2c(F)cccc2OCC(OC)C(OC)c2ccnc(C(C)C)c2-3)[C@@H](C)C1` (stereo partly drawn) [Example 59, 2^4-((S)-4-acryloyl-2-methylpiperazin-1-yl)-2^6,3^6-difluoro-1^2-isopropyl-6,7-dimethoxy-2^1,2^2-dihydro-4-oxa-2(1,7)-pyrido[2,3-d]pyrimidina-1(3,4)-pyridina-3(1,2)-benzocycloheptane-2^2-one] was tested. Which IC50 ([1]; Homo sapiens, NCI-H358, 120 h) did it give?
Answer: 23 nM

Question: What about the IC50 [2, 3] of the same compound?
Answer: 9 nM

Question: How did the IC50 ([1]; Homo sapiens, NCI-H358, 120 h) turn out when `C=CC(=O)N1CCN(c2nc(=O)n3c4nc(c(F)cc24)-c2c(F)cccc2OCC(OCC)C(OCC)c2ccnc(C(C)C)c2-3)[C@@H](C)C1` (stereo partly drawn) [Example 60, 2^4-((S)-4-acryloyl-2-methylpiperazin-1-yl)-6,7-diethoxy-2^6,3^6-difluoro-1^2-isopropyl-2^1,2^2-dihydro-4-oxa-2(1,7)-pyrido[2,3-d]pyrimidina-1(3,4)-pyridina-3(1,2)-benzocycloheptane-2^2-one] was run?
Answer: 45 nM

Question: What about the IC50 [2, 3] of the same compound?
Answer: 38 nM

Question: How did the IC50 ([1]; Homo sapiens, NCI-H358, 120 h) turn out when `C=CC(=O)N1CCN(c2nc(=O)n3c4nc(c(F)cc24)-c2c(F)cccc2OCC(OCCF)C(OCCF)c2ccnc(C(C)C)c2-3)[C@@H](C)C1` (stereo partly drawn) [Example 61, 2^4-((S)-4-acryloyl-2-methylpiperazin-1-yl)-2^6,3^6-difluoro-6,7-di(2-fluoroethoxy)-1^2-isopropyl-2^1,2^2-dihydro-4-oxa-2(1,7)-pyrido[2,3-d]pyrimidina-1(3,4)-pyridina-3(1,2)-benzocycloheptane-2^2-one] was run?
Answer: 38 nM

Question: What about the IC50 [2, 3] of the same compound?
Answer: 16 nM

Question: With `C=CC(=O)N1CCN(c2nc(=O)n3c4nc(c(F)cc24)-c2c(F)cccc2OCC2OC(=O)OC2c2ccnc(C(C)C)c2-3)[C@@H](C)C1` (stereo partly drawn) [Example 62, 11-((S)-4-acryloyl-2-methylpiperazin-1-yl)-15,21-difluoro-7-isopropyl-3a,20a-dihydro-9H,20H-12,14-(epiethane[1,2]diylidene)benzo[b][1,3]dioxazolo[4,5-j]pyrido[3,4-h]pyrimido[6,1-f][1]oxa[5,7]diazacyclodidecyne-2,9-dione] as the compound, how does the IC50 ([1]; Homo sapiens, NCI-H358, 120 h) read?
Answer: 20 nM

Question: And the IC50 [2, 3]?
Answer: 16 nM

Question: Which results are given for `C=CC(=O)N1CCN(c2nc(=O)n3c4nc(c(F)cc24)-c2c(F)cccc2OCC2OC(C)(C)OC2c2ccnc(C(C)C)c2-3)[C@@H](C)C1` (stereo partly drawn) [Example 63, 11-((S)-4-acryloyl-2-methylpiperazin-1-yl)-15,21-difluoro-7-isopropyl-2,2-dimethyl-3a,20a-dihydro-9H,20H-12,14-(eiethane[1,2]diylidene)benzo[b][1,3]dioxazolo[4,5-j]pyrido[3,4-h]pyrimido[6,1-f][1]oxa[5,7]diazacyclododecin-9-one]?
Answer: IC50 ([1]; Homo sapiens, NCI-H358, 120 h): 4 nM; IC50 [2, 3]: 4 nM

Question: `C=CC(=O)N1C[C@H](C)N(c2nc(=O)n3c4nc(c(F)cc24)-c2c(ccc(Cl)c2F)OCC(O)C(O)c2ccnc(C(C)C)c2-3)C[C@H]1C` (stereo partly drawn) [Example 65, (R)-2^4-((2S,5R)-4-acryloyl-2,5-dimethylpiperazin-1-yl)-3^5-chloro-2^6,3^6-difluoro-6,7-dihydroxy-1^2-isopropyl-2^1,2^2-dihydro-4-oxa-2(1,7)-pyrido[2,3-d]pyrimidina-1(3,4)-pyridina-3(1,2)-benz ocycloheptane-2^2-one] was tested. Which IC50 ([1]; Homo sapiens, NCI-H358, 120 h) did it give?
Answer: 1 nM

Question: What about the IC50 [2, 3] of the same compound?
Answer: 1 nM

Question: Which IC50 [1] does the source give for `C=CC(=O)N1CCN(c2nc(=O)n3c4nc(c(F)cc24)-c2c(ccc(Cl)c2F)OCC(O)C(O)c2ccnc(C(C)C)c2-3)[C@@H](C)C1` (stereo partly drawn) [Example 66, (R)-2^4-((S)-4-acryloyl-2-methylpiperazin-1-yl)-3^5-chloro-2^6,3^6-difluoro-6,7-dihydroxy-1^2-isopropyl-2^1,2^2-dihydro-4-oxa-2(1,7)-pyrido[2,3-d]pyrimidina-1(3,4)-pyridina-3(1,2)-benzocycloheptane-2^2-one] here?
Answer: 5 nM

Question: What about the IC50 [2] of the same compound?
Answer: 3 nM

Question: Which IC50 [1] does the source give for `C=CC(=O)N1CCN(c2nc(=O)n3c4nc(c(F)cc24)-c2c(ccc(Cl)c2F)OCC(O)C(O)c2ccnc(C(C)C)c2-3)[C@@H](C)C1` (stereo partly drawn) [Example 67, (S)-2^4-((S)-4-acryloyl-2-methylpiperazin-1-yl)-3^5-chloro-2^6,3^6-difluoro-6,7-dihydroxy-1^2-isopropyl-2^1,2^2-dihydro-4-oxa-2(1,7)-pyrido[2,3-d]pyrimidina-1(3,4)-pyridina-3(1,2)-benzocycloheptane-2^2-one] here?
Answer: 1320 nM

Question: What about the IC50 [2] of the same compound?
Answer: 859 nM
